From publication PMC9508196 (Scientific Reports, 2022) come the findings set out here.

Assay [1] has as its system A. baumannii B-8.2–2 (XDR). Description: microbe, parasite or virus in culture. It counts as cell-based, Acinetobacter baumannii. Particulars: clinical isolate B-8.2–2 (XDR), respiratory tract. In a few lines: (§1)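 MIC by CLSI broth microdilution in Müeller-Hinton broth, mid-log inoculum 2–8 × 10^5 CFU/mL, incubated with test agents. MBC taken as the lowest peptide concentration giving no colonies when non-turbid MIC wells were plated. Clinical MDR/XDR A. baumannii isolates from human samples; triplicate runs.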

Assay [2] concerns A. baumannii C-8.2–1 (XDR). Description: microbe, parasite or virus in culture. It counts as cell-based, Acinetobacter baumannii. Particulars: clinical isolate C-8.2–1 (XDR), sterile site. In a few lines: as §1
In assay [3] the test system is A. baumannii C-8.1–2 (MDR). Nature of the assay: microbe, parasite or virus in culture. Particulars: clinical isolate C-8.1–2 (MDR), sterile site. Type of assay: cell-based, Acinetobacter baumannii. In a few lines:
as §1

Assay [4] concerns A. baumannii B-8.1–2 (MDR). Description: microbe, parasite or virus in culture. Particulars: clinical isolate B-8.1–2 (MDR), respiratory tract. It counts as cell-based, Acinetobacter baumannii. In a few lines: as §1
Assay [5] relates to A. baumannii B-8.1–1 (MDR). Nature of the assay: microbe, parasite or virus in culture. It counts as cell-based, Acinetobacter baumannii. Particulars: clinical isolate B-8.1–1 (MDR), respiratory tract. In a few lines: as §1
Assay [6] concerns A. baumannii ATCC 19,606. Description: microbe, parasite or virus in culture. It counts as cell-based, Acinetobacter baumannii. Particulars: A. baumannii ATCC 19,606, triplicate; for MIC: broth microdilution (modified CLSI), MHB, 2–8 × 10^5 CFU/mL, 24 h, 37 °C; for MBC: colony count from non-turbid MIC wells. In a few lines:
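Strains were grown at 37 °C with shaking (E. coli in LB), then mid-log cells diluted into Müeller-Hinton broth at 2–8 × 10^5 CFU/mL and exposed to serial agent concentrations. Non-turbid wells were plated for MBC.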
A general note: Broth dilution looks for growth in wells or tubes with falling amounts of substance.

For assay [7], the system named is A. baumannii ATCC 19,606. Nature of the assay: Peptide stability to proteolytic enzymes (MIC/MBC after pre-incubation). Type of assay: cell-based, Acinetobacter baumannii. Conditions: for MBC, control / MIC, control: control: absence of human plasma and proteolytic enzymes, A. baumannii ATCC 19,606; for MBC in the presence of pepsin / MIC in the presence of pepsin: peptide pre-incubated with 1 mg/ml pepsin. As for the experimental part:
(§2) Minimum inhibitory concentration (MIC) of peptides and antibiotics was assessed by a modified version of the broth microdilution method from the Clinical and Laboratory Standards Institute (CLSI) as previously described. In brief, mid-log phase growths of microbial strains were cultured in Müeller-Hinton broth (MHB) with an initial inoculum of 2–8 × 10^5 CFU/mL. Bacteria suspensions were incubated in sterile 96-well plates with test agents at desired concentrations. […] Minimum bactericidal concentration (MBC) determination was performed using a modified version of the colony count assay. In brief, fifty µl of all non-turbid wells from MIC experiments were spread on agar plates. The MBC value was defined as the lowest concentration of peptides with no colony growth on the plate. All assays were performed in triplicate.
The MIC and MBC assays were performed after peptide was exposed to various conditions, including proteolytic enzymes, serum salts and human plasma. […] To determine peptide sensitivity to physiological salts, approximately 5 × 10^5 CFU/ml of A. baumannii ATCC 19,606 was mixed with the MHB containing different physiological salts at final concentration as follows: 150 mM NaCl, 4.5 mM KCl, 1 mM MgCl2, 6 µM NH4Cl, 8 µM ZnCl2, 4 µM FeCl3 and […]. After treatment, the MIC was evaluated as described in 2.4. To test the stability of peptides in human plasma, peptide was mixed with pure human plasma, and the mixture was incubated for 1 h at 37 °C. Then, the mixture was two-fold serially diluted with sterile MHB. The peptides at final concentrations of 0.98 to 250 µg/ml were incubated with an equal volume of bacterial suspension at 37 °C for 24 h. MIC values were determined as described in 2.4.

Assay [8] has as its system Bacillus cereus ATCC 11,778. It counts as cell-based. Particulars: B. cereus ATCC 11,778; broth microdilution, MHB, 24 h, 37 °C, triplicate.
Description: (§3) Ten strains of both Gram-positive and -negative bacteria, including Staphylococcus aureus ATCC 25,923, S. epidermidis ATCC 12,228, Bacillus cereus ATCC 11,778, Listeria monocytogenes 10403S, Salmonella typhimurium ATCC 13,311, Pseudomonas aeruginosa ATCC 27,853, Shigella sonnei ATCC 11,060, A. baumannii ATCC 19,606, Escherichia coli ATCC 25,922 and E. coli O157:H7, were used in this study. Eight clinical isolates of multidrug-resistant (MDR) and extensively drug-resistant (XDR) A. baumannii, isolated from human (blood, sputum, respiratory sample, sterile site sample and urine), were kindly provided by Asst. Prof. Dr. Sakawrat Kanthawong (Faculty of Medicine, Khon Kaen University, Thailand) (Table S1). All bacterial strains, excluding L. monocytogenes 10403S and E. coli, were cultured in tryptic soy broth (TSB). L. monocytogenes was grown in TSB supplemented with 0.6% yeast extract (TSB-YE), and E. coli was cultured in Luria broth (LB). All of bacteria were cultured at 37 °C with continuous shaking at 220 rpm.
as §2

Assay [9] has as its system Listeria monocytogenes 10403S. It counts as cell-based. Particulars: L. monocytogenes 10403S; broth microdilution, MHB, 24 h, 37 °C, triplicate.
Description: as §3, §2

Assay [10] deals with Shigella sonnei ATCC 11,060. It counts as cell-based. Particulars: S. sonnei ATCC 11,060; broth microdilution, MHB, 24 h, 37 °C, triplicate.
Description: as §3, §2

Assay [11] has as its system Pseudomonas aeruginosa ATCC 27,853. Type of assay: cell-based. Particulars: P. aeruginosa ATCC 27,853; broth microdilution, MHB, 24 h, 37 °C, triplicate.
Description: as §3, §2

Assay [12] has as its system Staphylococcus epidermidis ATCC 12,228. It counts as cell-based. Conditions: S. epidermidis ATCC 12,228; broth microdilution, MHB, 24 h, 37 °C, triplicate.
Description: as §3, §2

For assay [13], the system named is Staphylococcus aureus ATCC 25,923. It counts as cell-based. Particulars: S. aureus ATCC 25,923; broth microdilution, MHB, 24 h, 37 °C, triplicate.
Description: as §3, §2

For assay [14], the system named is Escherichia coli ATCC 25,922. Type of assay: cell-based. Particulars: E. coli ATCC 25,922; broth microdilution, MHB, 24 h, 37 °C, triplicate.
Description: as §3, §2

For assay [15], the system named is Escherichia coli O157:H7 MT strain. Type of assay: cell-based. Particulars: E. coli O157:H7 MT strain; broth microdilution, MHB, 24 h, 37 °C, triplicate.
Description: as §3, §2

For assay [16], the system named is Salmonella Typhimurium ATCC 13,311. Type of assay: cell-based. Particulars: S. Typhimurium ATCC 13,311; broth microdilution, MHB, 24 h, 37 °C, triplicate.
Description: as §3, §2

Setting [17] is: peptide pre-incubated with 1 mg/ml proteinase K, 37 °C, 1 h.
The mark [18] stands for this setting: peptide pre-incubated with 1 mg/ml trypsin, 37 °C, 1 h.

Non-standard residues stand in square brackets, D forms with d. Residues, ends and D or L forms follow the SMILES beside them. No end group written: not given here.

On to `CC[C@@H](C)[C@@H](NC(=O)[C@@H](CCCCN)NC(=O)CNC(=O)[C@@H](C)NC(=O)[C@H](NC(=O)[C@@H](CCCCN)NC(=O)[C@@H](CCCCN)NC(=O)[C@H](NC(=O)[C@@H](CCCNC(=N)N)NC(=O)[C@@H](CCCNC(=N)N)NC(=O)[C@@H](Cc1ccccc1)NC(=O)[C@@H](CC(C)C)NC(=O)[C@H](N)CCCNC(=N)N)C(C)C)C(C)C)C(=O)N[C@H](C)C(=O)N[C@H](CCCCN)C(=O)N[C@H](CCCNC(=N)N)C(=O)N[C@@H](C(=O)N[C@H](Cc1c[nH]c2ccccc12)C(=O)N[C@H](CCCCN)C(N)=O)[C@H](C)CC` [D-AP19] (H-[dR][dL][dF][dR][dR][dV][dK][dK][dV][dA]G[dK][dI][dA][dK][dR][dI][dW][dK]-NH2), for which, in assay [1], the MBC is 7.81(7.81) µg/ml and the MIC is 7.81(7.81) µg/ml. For the same compound, in assay [2], the MBC is on record as 7.81(7.81) µg/ml and the MIC is recorded as 7.81(7.81) µg/ml. In assay [3], the MBC was 3.91(3.91) µg/ml and the MIC is on record as 3.91(3.91) µg/ml. Besides, in assay [4], the MBC was 15.63(15.63) µg/ml and the MIC is reported as 15.63(15.63) µg/ml. Also, in [5], the MBC was 7.81(7.81) µg/ml and the MIC is recorded as 7.81(7.81) µg/ml. Further, in assay [6], the MIC was 7.81 (7.81) µg/ml and the MBC is recorded as 7.81 (7.81) µg/ml. Also, in assay [7], the “MBC, control” value is reported as 7.81(7.81) µg/ml and the “MIC, control” value is 7.81(7.81) µg/ml. Moreover, in assay [7] (37 °C, 1 h), the “MBC in the presence of pepsin” value is given as 15.63(15.63) µg/ml and the “MIC in the presence of pepsin” value is 15.63(15.63) µg/ml. In assay [7] (setting [17]), the “MBC in the presence of proteinase K” value was 7.81(7.81) µg/ml and the “MIC in the presence of proteinase K” value is 7.81(7.81) µg/ml. In addition, in assay [7] (setting [18]), the “MBC in the presence of trypsin” value is listed as 7.81(7.81) µg/ml and the “MIC in the presence of trypsin” value was 7.81(7.81) µg/ml.

RLFRRVKKVAGKIAKRIWK-NH2 [AP19]: the MIC amounted to 7.81 µg/mL in assay [8]; 3.91 µg/mL in assay [9]; 3.91 µg/mL in [10]; 3.91 µg/mL in assay [11]; 1.95 µg/mL in assay [12]; 7.81 µg/mL in [13]. The MIC was 3.91 µg/mL in [14]; 15.63 µg/mL in assay [15]; 1.95 µg/mL in assay [16]; 7.81(7.81) µg/ml in [1]; 7.81(7.81) µg/ml in assay [2]; 3.91(3.91) µg/ml in [3]. For the same compound, the MIC in assay [4] is 7.81(7.81) µg/ml; in assay [5], 7.81(7.81) µg/ml; in [6] it was 7.81 µg/mL. Further, the MBC in assay [1] is 7.81(7.81) µg/ml; in assay [2] it was 7.81(7.81) µg/ml; in assay [3], 3.91(3.91) µg/ml; in assay [4], 7.81(7.81) µg/ml; in [5] it was 7.81(7.81) µg/ml; in assay [6], 7.81 (7.81) µg/ml. Moreover, the “MBC, control” value in assay [7] is 7.81(7.81) µg/ml. Besides, the “MIC, control” value in assay [7] was 7.81(7.81) µg/ml. In addition, the “MBC in the presence of pepsin” value in [7] (37 °C, 1 h) is recorded as 31.25(31.25) µg/ml. Besides, the “MIC in the presence of pepsin” value in assay [7] (37 °C, 1 h) is listed as 31.25(31.25) µg/ml.
